Measured values: the supplement of paper PMC11061612

Legend:
[1] = system: BPH-1 (Non-Cancerous); experiment: combination Emax (second highest fraction inhibited in the dose matrix, 72 h); higher = more inhibition; extreme values may be limits of the assay
In short: (§1)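 Cell lines in DMEM/F12 or RPMI with 10% FBS were plated in 1536-well plates, held 24 hours at 37°C, 5% CO2, then given two-drug dose matrices for 72 hours (DMSO typically 0.2%). Viability was read by CellTiter-Glo 2.0 luminescence and scaled as inhibition from 0 (vehicle wells) to 1 (blank wells). Combination Emax is the second-highest inhibition in the matrix; Bliss excess is observed combination effect minus expected EA + EB − EA·EB, EA and EB being single-agent effects.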

[2] = system: EW-11 (Ewing's Sarcoma); experiment: as above
In short: as §1

[3] = system: L-428 (Hodgkin's Lymphoma); experiment: as above
In short: as §1

[4] = system: NCI-H2052 (Mesothelioma); experiment: as above
In short: as §1

[5] = system: BE2-M17 (Neuroblastoma); experiment: Bliss excess, mean over the matrix (fraction); higher = more synergy
In short: as §1

[6] = system: NCI-H524 (Small Cell Lung Carcinoma); experiment: as above
In short: as §1

[7] = system: SNU-449 (Hepatocellular Carcinoma); experiment: as above
In short: as §1

[8] = system: NUGC-4 (Gastric Carcinoma); experiment: as above
In short: as §1

[9] = system: OVCAR-5 (Ovarian Carcinoma); experiment: as above
In short: as §1

[10] = system: SW1710 (Bladder Carcinoma); experiment: as above
In short: as §1

[11] = system: ALL-PO (B-Lymphoblastic Leukemia); experiment: as above
In short: as §1

[12] = system: NCI-H209 (Small Cell Lung Carcinoma); experiment: as above
In short: as §1

[13] = system: HeLa (Cervical Carcinoma); experiment: as above
In short: as §1

[14] = system: Detroit562 (Head and Neck Carcinoma); experiment: as above
In short: as §1

[15] = system: HuCCT1 (Biliary Tract Carcinoma); experiment: as above
In short: as §1

[16] = system: NCI-H2052 (Mesothelioma); experiment: as above
In short: as §1

[17] = system: LCLC-97TM1 (Non-Small Cell Lung Carcinoma); experiment: as above
In short: as §1

[18] = system: HuH-7 (Hepatocellular Carcinoma); experiment: as above
In short: as §1

[19] = system: CAL-72 (Osteosarcoma); experiment: as above
In short: as §1

[20] = system: HH (T-Cell Non-Hodgkin's Lymphoma); experiment: as above
In short: as §1
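For Bliss excess, mean over the matrix in this document: after 72 h of two-drug dosing.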

Row | SMILES | combination Emax [1] | combination Emax [2] | combination Emax [3] | combination Emax [4] | Bliss excess [5] | Bliss excess [6] | Bliss excess [7] | Bliss excess [8] | Bliss excess [9] | Bliss excess [10] | Bliss excess [11] | Bliss excess [12] | Bliss excess [13] | Bliss excess [14] | Bliss excess [15] | Bliss excess [16] | Bliss excess [17] | Bliss excess [18] | Bliss excess [19] | Bliss excess [20]
1 | Cc1cc2ncnn2cc1Nc1ncc2c(n1)n(C1CCOCC1)c(=O)n2C [AZD7648] + CN(C)CCCOc1ccc(-c2ccc3ncc4c(c3c2)n(C2CCOCC2)c(=O)n4C)cn1 [AZD0156] (first compound max 10 µM, 7x7, partner max 1 µM) | 0.378 | 0.549 | 0.37 | 0.428 | -0.0026 | 0.0254 | -0.0457 | 0.0034 | -0.0244 | -0.01 | 0.0524 | 0.048 | 0.0376 | 0.0129 | 0.0032 | 0.0038 | -0.0042 | -0.006 | -0.0908 | -0.0338
2 | Cc1cc2ncnn2cc1Nc1ncc2c(n1)n(C1CCOCC1)c(=O)n2C [AZD7648] + C[C@@H]1COCCN1C2=NC(=NC(=C2)C3(CC3)[S@](=N)(=O)C)C4=C5C=CNC5=NC=C4 [AZD6738] (first compound max 10 µM, 7x7, partner max 10 µM) | 0.429 | 0.748 | 0.794 | 0.413 | -0.0073 | 0.035 | 0.0318 | -0.0673 | 0.0263 | 0.0067 | 0.0381 | -0.0155 | 0.0258 | 0.0217 | -0.0087 | 0.0186 | 0.0376 | 0.0151 | 0.0292 | 0.0284
3 | Cc1cc2ncnn2cc1Nc1ncc2c(n1)n(C1CCOCC1)c(=O)n2C [AZD7648] + O=C(c1cc(Cc2n[nH]c(=O)c3ccccc23)ccc1F)N1CCN(C(=O)C2CC2)CC1 [Olaparib] (first compound max 10 µM, 7x7, partner max 10 µM) | 0.515 | 0.582 | 0.172 | 0.308 | 0.0754 | -0.0698 | -0.0525 | -0.049 | -0.0349 | -0.0377 | -0.0202 | 0.0055 | -0.0016 | -0.0108 | -0.028 | -0.0521 | -0.0218 | -0.0389 | -0.0093 | -0.0269
4 | Cc1nc(Nc2ncc(C(=O)Nc3c(C)cccc3Cl)s2)cc(N2CCN(CCO)CC2)n1 [Dasatinib] + CC(=O)Nc1cccc(-n2c(=O)n(C3CC3)c(=O)c3c(Nc4ccc(I)cc4F)n(C)c(=O)c(C)c32)c1 [Trametinib] (first compound max 2 µM, 7x7, partner max 1 µM) | 0.744 | 0.157 | 0.128 | 0.558 | -0.0087 | -0.0362 | -0.0631 | 0.007 | 0.0217 | -0.0546 | 0.0238 | -0.039 | -0.0672 | -0.0007 | -0.0272 | -0.0528 | 0.0455 | 0.0586 | -0.0409 | -0.0188
5 | COc1cc2ncnc(Nc3ccc(F)c(Cl)c3)c2cc1OCCCN1CCOCC1 [Gefitinib] + CC(C)n1c(=O)n(C)c2cnc3cc(F)c(-c4ccc(OCCCN5CCCCC5)nc4)cc3c21 [AZD1390] (first compound max 10 µM, 7x7, partner max 0.3 µM) | 0.556 | 0.171 | 0.353 | 0.137 | -0.049 | -0.0431 | -0.0529 | -0.0491 | -0.0846 | -0.041 | -0.0558 | -0.0831 | -0.0578 | -0.0476 | -0.0347 | -0.0544 | -0.0389 | -0.042 | -0.0555 | -0.0263
6 | COc1cc2c(cc1OCCCCCOc1cc3c(cc1OC)C(=O)N1C=C(C)C[C@H]1C=N3)N=C[C@@H]1CC(C)=CN1C2=O [SG3199] + O=C(c1cc(Cc2n[nH]c(=O)c3ccccc23)ccc1F)N1CCN(C(=O)C2CC2)CC1 [Olaparib] (first compound max 0.001 µM, 7x7, partner max 10 µM) | 0.354 | 0.582 | 0.0689 | 0.0807 | 0.0474 | -0.0181 | -0.0647 | -0.0134 | -0.0314 | -0.0334 | -0.0276 | 0.0051 | -0.0301 | -0.0252 | -0.0309 | -0.0319 | -0.0079 | -0.0363 | -0.0565 | -0.0344
7 | C[C@@H](c1ccc2nccn2c1)n1nnc2ncc(-c3cnn(C)c3)nc21 [Savolitinib] + CC1(C)CCC(CN2CCN(c3ccc(C(=O)NS(=O)(=O)c4ccc(NCC5CCOCC5)c([N+](=O)[O-])c4)c(Oc4cnc5[nH]ccc5c4)c3)CC2)=C(c2ccc(Cl)cc2)C1 [Venetoclax] (first compound max 1 µM, 7x7, partner max 1 µM) | 0.136 | 0.213 | 0.117 | 0.121 | -0.0656 | -0.0066 | -0.0358 | -0.0817 | -0.0597 | -0.0561 | 0.035 | -0.0361 | -0.0374 | -0.0322 | -0.0525 | -0.0549 | -0.0427 | -0.0573 | -0.02 | -0.0712
8 | C[C@@H](c1ccc2nccn2c1)n1nnc2ncc(-c3cnn(C)c3)nc21 [Savolitinib] + Cc1c2c(nn1C)CSCc1cc(n(C)n1)CSc1cc(c3ccccc3c1)OCCCc1c(C(=O)O)n(C)c3c-2c(Cl)ccc13 [AZD5991] (first compound max 1 µM, 7x7, partner max 1 µM) | 0.199 | 0.491 | 0.0947 | 0.185 | -0.0285 | -0.0115 | -0.0432 | -0.0348 | -0.0536 | -0.0351 | -0.0254 | -0.0187 | -0.0696 | 0.0497 | -0.0556 | -0.0419 | -0.0311 | -0.0276 | -0.0077 | -0.0258
